How the values were obtained:
SaTyrA1 [1] = experiment: NADPH formation at […] nm, Michaelis-Menten fit; assay type: biochemical, Streptochaeta angustifolia; details: 1 mM NADP+, 50 mM HEPES pH 7.5, 50 mM KCl, 37 °C
AcTyrAnc [2] = experiment: NADPH formation at […] nm, Michaelis-Menten fit; assay type: biochemical, Ananas comosus; details: 1 mM NADP+, 50 mM HEPES pH 7.5, 50 mM KCl, 37 °C
AcTyrA1 [3] = experiment: NADPH formation at […] nm, Michaelis-Menten fit; assay type: biochemical, Ananas comosus; details: 1 mM NADP+, 50 mM HEPES pH 7.5, 50 mM KCl, 37 °C
JaTyrA1 [4] = experiment: NADPH formation at […] nm, Michaelis-Menten fit; assay type: biochemical, Joinvillea ascendens; details: 1 mM NADP+, 50 mM HEPES pH 7.5, 50 mM KCl, 37 °C
SaTyrAnc [5] = experiment: NADPH formation at […] nm, Michaelis-Menten fit; assay type: biochemical, Streptochaeta angustifolia; details: 1 mM NADP+, 50 mM HEPES pH 7.5, 50 mM KCl, 37 °C
JaTyrAnc [6] = experiment: NADPH formation at […] nm, Michaelis-Menten fit; assay type: biochemical, Joinvillea ascendens; details: 1 mM NADP+, 50 mM HEPES pH 7.5, 50 mM KCl, 37 °C
OsTyrAnc [7] = biological target: T1, OsTyrAnc (Oryza sativa, UniProt Q5Z6Y1); details: read-out: IC50 (µM Tyr); 500 uM arogenate, 1 mM NADP+; inhibitor
T1 sequence (Q5Z6Y1 50-342): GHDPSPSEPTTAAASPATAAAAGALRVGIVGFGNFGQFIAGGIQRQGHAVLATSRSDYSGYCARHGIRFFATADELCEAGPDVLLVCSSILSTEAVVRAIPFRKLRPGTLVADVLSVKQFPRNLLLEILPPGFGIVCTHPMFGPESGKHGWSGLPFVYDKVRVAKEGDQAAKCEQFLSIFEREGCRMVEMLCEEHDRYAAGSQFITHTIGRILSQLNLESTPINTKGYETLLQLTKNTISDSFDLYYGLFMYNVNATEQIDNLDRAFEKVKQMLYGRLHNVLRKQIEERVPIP

AcTyrAnc [8] = details: competitive model; 500 µM arogenate, 1 mM NADP+, pH 7.5, 37 °C
JaTyrA1 [9] = details: competitive model; 500 µM arogenate, 1 mM NADP+, pH 7.5, 37 °C
OsTyrA1 [10] = biological target: T2, OsTyrA1 (Oryza sativa, UniProt Q5Z9H5); details: competitive model; 500 µM arogenate, 1 mM NADP+, pH 7.5, 37 °C
T2 sequence (Q5Z9H5 46-353): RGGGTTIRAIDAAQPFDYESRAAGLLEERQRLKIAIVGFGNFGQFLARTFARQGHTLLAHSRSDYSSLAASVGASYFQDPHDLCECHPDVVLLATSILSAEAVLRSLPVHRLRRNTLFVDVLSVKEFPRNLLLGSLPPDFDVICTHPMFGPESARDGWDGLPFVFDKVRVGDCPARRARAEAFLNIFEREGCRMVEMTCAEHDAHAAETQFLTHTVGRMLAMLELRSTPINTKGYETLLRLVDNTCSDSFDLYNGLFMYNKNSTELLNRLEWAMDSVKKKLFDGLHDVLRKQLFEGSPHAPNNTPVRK

SaTyrAnc [11] = details: competitive model; 500 µM arogenate, 1 mM NADP+, pH 7.5, 37 °C
ZmTyrAnc [12] = biological target: T3, ZmTyrAnc (Zea mays, UniProt C0PK73); details: read-out: IC50 (µM Tyr); 500 uM arogenate, 1 mM NADP+; inhibitor
T3 sequence (C0PK73 50-392): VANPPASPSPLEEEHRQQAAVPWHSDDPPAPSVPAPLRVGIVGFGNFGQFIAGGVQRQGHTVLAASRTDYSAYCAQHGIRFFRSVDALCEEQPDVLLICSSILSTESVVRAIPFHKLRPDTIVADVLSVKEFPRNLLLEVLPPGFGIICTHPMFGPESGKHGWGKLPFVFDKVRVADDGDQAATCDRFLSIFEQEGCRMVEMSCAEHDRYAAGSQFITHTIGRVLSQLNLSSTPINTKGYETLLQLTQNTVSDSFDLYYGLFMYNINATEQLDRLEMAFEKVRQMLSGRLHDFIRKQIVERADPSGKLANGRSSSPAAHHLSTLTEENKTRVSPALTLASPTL

SaTyrA1 [13] = details: competitive model; 500 µM arogenate, 1 mM NADP+, pH 7.5, 37 °C
ZmTyrAnc [14] = biological target: T3, ZmTyrAnc; details: competitive model; 500 µM arogenate, 1 mM NADP+, pH 7.5, 37 °C
AcTyrA1 [15] = details: competitive model; 500 µM arogenate, 1 mM NADP+, pH 7.5, 37 °C
OsTyrA1 [16] = biological target: T2, OsTyrA1; details: read-out: IC50 (µM Tyr); 500 uM arogenate, 1 mM NADP+; inhibitor
OsTyrAnc [17] = biological target: T1, OsTyrAnc; details: competitive model; 500 µM arogenate, 1 mM NADP+, pH 7.5, 37 °C
JaTyrAnc [18] = details: competitive model; 500 µM arogenate, 1 mM NADP+, pH 7.5, 37 °C

Compound | Km (SaTyrA1 [1]) [µM] | Km (AcTyrAnc [2]) [µM] | Km (AcTyrA1 [3]) [µM] | Km (JaTyrA1 [4]) [µM] | Km (SaTyrAnc [5]) [µM] | Km (JaTyrAnc [6]) [µM] | IC50 (OsTyrAnc [7]) [µM] | Ki (AcTyrAnc [8]) [µM] | Ki (JaTyrA1 [9]) [µM] | Ki (OsTyrA1 [10]) [µM] | Ki (SaTyrAnc [11]) [µM] | IC50 (ZmTyrAnc [12]) [µM] | Ki (SaTyrA1 [13]) [µM] | Ki (ZmTyrAnc [14]) [µM] | Ki (AcTyrA1 [15]) [µM] | IC50 (OsTyrA1 [16]) [µM] | Ki (OsTyrAnc [17]) [µM] | Ki (JaTyrAnc [18]) [µM]
N[C@@H](CC1(C(=O)O)C=CC(O)C=C1)C(=O)O (stereo partly drawn) [arogenate] | 720 ± 90 | 1050 ± 170 | 750 ± 80 | 730 ± 60 | 350 ± 20 | 1900 ± 240 |  |  |  |  |  |  |  |  |  |  |  | 
N[C@@H](Cc1ccc(O)cc1)C(=O)O [tyrosine] |  |  |  |  |  |  | 280 ± 70 | 76 ± 30 | 24 ± 4 | 21 ± 2 | 35 ± 8 | 850 ± 30 | 34 ± 23 | 352 ± 13 | 12 ± 6 | 53 ± 5 | 78 ± 19 | 106 ± 19

From publication doi:10.1101/2025.06.05.658145v1 (biorxiv, 2025)
